Results: PMC4503722, “Novel Phenotypic Outcomes Identified for a Public Collection of Approved Drugs from a Publicly Accessible Panel of Assays” (PLoS ONE, 2015)

Legend:
[1] = tested on: STC-1 cell line; assay type: cell-based, mouse; conditions: for mSTC-1 GLP1 Secretion IC50/EC50: assay number 13; for IC50/EC50, mSTC-1 GLP1 Secretion (assay number 13): concentration response
[2] = tested on: NCI-H716 cells; assay: cells; assay type: cell-based, Human; conditions: for hNCI-H716 GLP1 Secretion IC50/EC50: assay number 12; for IC50/EC50, hNCI-H716 GLP1 Secretion (assay number 12): concentration response
[3] = tested on: INS-1E cells; assay: cells; assay type: cell-based, rat; conditions: 5 mM glucose; for 5mMGluc_INS1E SecretionMod IC50/EC50: assay number 8;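 as to all read-outs here: secreted insulin quantified by homogeneous immunoassay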
[4] = tested on: endothelial tube formation in co-cultures of ECFCs and ADSCs treated with VEGF; assay: cells; assay type: cell-based, human
[5] = tested on: ECFC/ADSC co-culture cell nuclei number
[6] = tested on: RKO; assay: cells; assay type: cell-based; conditions: assay number 29
[7] = tested on: SW480; assay: cells; assay type: cell-based; conditions: assay number 24
[8] = tested on: HT-29; assay: cells; assay type: cell-based; conditions: assay number 28
[9] = tested on: SNU-C1; assay: cells; assay type: cell-based; conditions: assay number 30
[10] = tested on: Colo320; assay: cells; assay type: cell-based; conditions: assay number 27
[11] = tested on: HCT116 cells treated with a GSK3β inhibitor; assay: cells; assay type: cell-based; conditions: assay number 26; GSK3b inhibitor pretreated
[12] = tested on: DLD-1; assay: cells; assay type: cell-based; conditions: assay number 23
[13] = tested on: HCT116; assay: cells; assay type: cell-based; conditions: assay number 25; basal

Structure (SMILES)	mSTC-1 GLP1 Secretion IC50/EC50 [1] [µM]	hNCI-H716 GLP1 Secretion IC50/EC50 [2] [µM]	5mMGluc_INS1E SecretionMod IC50/EC50 [3] [µM]	VEGF_ADSC\ECFC Angio CD31 TubeArea IC50/EC50 [4] [µM]	VEGF_ADSC\ECFC Angio Hoechst NucArea IC50/EC50 [5] [µM]	also measured
CC(C)(C)CC(C)(C)c1ccc(O)c(Cc2ccc(Cl)cc2Cl)c1 [NCGC00095016-05]	0.5436	9.073	> 33.33			
Cc1cc(O)c2c(O)c3c(O)cccc3cc2c1 [NCGC00181774-02]						IC50/EC50, mSTC-1 GLP1 Secretion (assay number 13) [1]: 11.3101 µM; IC50/EC50, VEGF_ADSC\ECFC Angio CD31 TubeArea (assay number 2) [4]: > 10 µM; IC50/EC50, VEGF_ADSC\ECFC Angio Hoechst NucArea (assay number 3) [5]: > 10 µM; IC50/EC50, hNCI-H716 GLP1 Secretion (assay number 12) [2]: > 20 µM; IC50/EC50, 5mMGluc_INS1E SecretionMod (assay number 8) [3]: > 33.33 µM
O=C(CBr)Nc1ccc(Cl)cc1C(=O)c1ccccc1F [NCGC00253724-01]	> 40	> 40	> 33.33	> 10	> 10	
CCCCCN=C(N)N/N=C/c1c[nH]c2ccc(OC)cc12 [NCGC00095192-05]	> 40	10.8586	16.8442	3.1318	7.175	
CCCCCCCCCCCCCCCC[N+](C)(C)CC.[Br-] [NCGC00166120-02]	> 40	11.7347		1.1378	7.579	Basal_Viability ATP RKO IC50/EC50 ([6]; basal): 0.9309 µM; Basal_Viability ATP SW480 IC50/EC50 ([7]; basal): 1.2387 µM; Basal_Viability ATP HT-29 IC50/EC50 ([8]; basal): 0.4091 µM; Basal_Viability ATP SNU-C1 IC50/EC50 ([9]; basal): 0.004 µM; Basal_Viability ATP Colo 320 IC50/EC50 ([10]; basal): 0.0372 µM; GSK3b inh pretreated_Viability ATP HCT116 IC50/EC50 [11]: 2.6825 µM; Basal_Viability ATP DLD-1 IC50/EC50 ([12]; basal): 0.7403 µM; Basal_Viability ATP HCT116 IC50/EC50 [13]: 3.1595 µM
CCOC(=O)c1ccccc1O [NCGC00181161-03]						IC50/EC50, mSTC-1 GLP1 Secretion (assay number 13) [1]: > 40 µM; IC50/EC50, hNCI-H716 GLP1 Secretion (assay number 12) [2]: > 40 µM; IC50/EC50, 5mMGluc_INS1E SecretionMod (assay number 8) [3]: > 33.33 µM
O=C1Nc2ccc(Cl)cc2[C@@](C#CC2CC2)(C(F)(F)F)O1 [NCGC00159337-04]	2.476	21.246	3.8674			
CC(COc1ccccc1)NN (stereo not shown) [NCGC00183828-01]	27.1817	> 40	> 33.33	> 10	> 10	
Cn1cc([S+](C)[O-])c(=O)c2ccc(F)cc21 (stereo not shown) [NCGC00183849-01]	> 40	> 40	> 33.33	> 10	> 10	
FC(F)(F)C(F)(F)C(F)(F)C(F)(F)C(F)(F)C(F)(F)C(F)(F)C(F)(F)Br [NCGC00166217-02]	> 40	> 40	> 33.33			
Clc1ccc(CCC(Cn2ccnc2)Sc2c(Cl)cccc2Cl)cc1 (stereo not shown) [NCGC00179596-03]	6.9953	15.9807		3.5313	6.743	Basal_Viability ATP RKO IC50/EC50 [6]: 2.3045 µM; Basal_Viability ATP SW480 IC50/EC50 [7]: 1.6936 µM; Basal_Viability ATP HT-29 IC50/EC50 [8]: 3.009 µM; Basal_Viability ATP SNU-C1 IC50/EC50 [9]: 0.9956 µM; Basal_Viability ATP Colo 320 IC50/EC50 [10]: 0.2211 µM; GSK3b inh pretreated_Viability ATP HCT116 IC50/EC50 [11]: 0.8414 µM; Basal_Viability ATP DLD-1 IC50/EC50 [12]: 1.8367 µM; Basal_Viability ATP HCT116 IC50/EC50 [13]: 2.0642 µM
